Test results as given in patent US20250282818A1, “SYRBACTIN MACROLACTAMS AND UNNATURAL ANALOGS AS PROTEASOME INHIBITORS FOR THE TREATMENT OF MULTIPLE MYELOMA AND CHEMOENZYMATIC SYNTHESIS THEREOF” (UNIVERSITY OF FLORIDA RESEARCH FOUNDATION,INCORPORATED, priority 2022, published 2025).
Entries after “also recorded” stand apart in the source; their conditions may differ.

Key:
[1] = system: RPMI 8226 cells; assay: RPMI 8226 cytotoxicity EC50 measurements (WST-1); format: cell-based, human; details: RPMI 8226, 48 hours
Method: (§1) RPMI 8226 cells were seeded in a 96-well plate (20,000 cells/well) in cell culture media supplemented with indicated compounds (1,000× stock in DMSO) or DMSO and cultured for 48 hours. Toxicity was determined using the WST-1 assay (Roche) according to the protocol of the manufacturer. (n=3)
as §1, with “Cytotoxicity of phenyl cepafungin (50) and hybrid analog (S39) in RPMI 8226 RPMI” for “RPMI”

[2] = molecular target: T1, proteasome subunit β5 (Homo sapiens, UniProt P28074); assay: Proteasome inhibition IC50 measurements in RPMI 8226 cells, substrate Suc-LLVY-AMC (β5); format: cell-based; details: β5, RPMI 8226 cells
T1 construct: Cells were then collected and lysed; endogenous in cells; host or cells: RPMI 8226
Text: Our preliminary series of analogs (FIG. 3), including the natural product glidobactin A (2), were synthesized by largely the same route (FIG. 2).^13 Desoxycepafungin (38) was synthesized from Boc-Lys(Boc)-OH to assess the role of the macrocycle hydroxylation in 1 towards proteasome inhibition. The saturated cepafungin analog 39 was designed to address the possible role of rigidity in the tail fragment induced by the diene seen in many natural cepafungins and glidobactins. An analog bearing unsaturation at its macrocyclic lysine was envisioned to provide a head-to-head comparison between the cepafungin and syringolin A (4) macrocyclic core. […] Proteasome subunit β5 IC50 values were determined in situ in RPMI 8226 cells (FIG. 3). In close agreement with prior measurement of β5 IC50 for natural 1 and 2 in purified yeast proteasome,^8 in our hands the additional branching methyl in 1 indeed leads to ca. 5-fold improved IC50 compared to 2 in RPMI 8226 cells. […] Likewise, saturation of the fatty acid fragment in 39 causes ca. 14-fold decrease in β5 inhibition. This preliminary series of analogs highlighted that the macrocyclic hydroxylation, fatty acid unsaturation, and terminal lipid functionality are critical for potent proteasome inhibitory activity.
Cellular assays were performed with human multiple myeloma cell line RPMI 8226. First, relative inhibition of proteasome subunits β5 and β2 for all analogs and the natural product was measured at 30 nM compound concentration. Following incubation of the analogs in cell culture for 6 hours, cells were lysed and fluorogenic subunit-specific peptide substrates Suc-LLVY-AMC (β5) or Ac-RLR-AMC (β2) were incubated with the lysates, and fluorescence readings provided relative proteasome activity levels with respect to DMSO (FIG. 6A). Next, cytotoxicity screening was performed at 30 nM and 100 nM concentrations for better coverage of dynamic range (FIG. 6B). […] Therefore, the improved cytotoxicity of phenyl cepafungin 50 likely results from a more pronounced loss of β5 function in RPMI 8226 cells. This drastic increase in proteasome inhibition may be due to pi-stacking of the lipid tail phenyl ring with the β6 subunit residues Tyr106 and/or Tyr5. The β2 subunit-bound natural product has residues Tyr102 and Phe103 on the adjacent β3 subunit oriented further away from the terminal lipid methyl groups, and presumably would not facilitate pi-stacking to the extent possible at the adjacent β6 subunit (see FIG. 4, FIG. 9). […]
RPMI 8226 cells were seeded in a 6-well plate (1,000,000 cells/well) in cell culture media supplemented with indicated compounds (1,000× stock in DMSO) or DMSO and cultured for 6 hours. […] The plates were incubated at 37° C. for one hour and fluorescence was read at A360ex/A460em. […]

[3] = system: RPMI 8226 cells; assay: RPMI8226 cytotoxicity screening (WST-1); format: cell-based, human; details: for cytotoxicity / activity compared with the natural product, in words: 30 nM and 100 nM compound concentration; for potency compared with parent natural product 1 in screening (FIG. 6A, 6B): 30 nM and 100 nM, cytotoxicities track with proteasome inhibition at 30 nM
Method: Cellular assays were performed with human multiple myeloma cell line RPMI 8226. First, relative inhibition of proteasome subunits β5 and β2 for all analogs and the natural product was measured at 30 nM compound concentration. Following incubation of the analogs in cell culture for 6 hours, cells were lysed and fluorogenic subunit-specific peptide substrates Suc-LLVY-AMC (β5) or Ac-RLR-AMC (β2) were incubated with the lysates, and fluorescence readings provided relative proteasome activity levels with respect to DMSO (FIG. 6A). Next, cytotoxicity screening was performed at 30 nM and 100 nM concentrations for better coverage of dynamic range (FIG. 6B). […] Therefore, the improved cytotoxicity of phenyl cepafungin 50 likely results from a more pronounced loss of β5 function in RPMI 8226 cells. This drastic increase in proteasome inhibition may be due to pi-stacking of the lipid tail phenyl ring with the β6 subunit residues Tyr106 and/or Tyr5. The β2 subunit-bound natural product has residues Tyr102 and Phe103 on the adjacent β3 subunit oriented further away from the terminal lipid methyl groups, and presumably would not facilitate pi-stacking to the extent possible at the adjacent β6 subunit (see FIG. 4, FIG. 9). […] These combined modifications were made in hopes that the effects of both substitutions would be additive.
[…] Toxicity was determined using the WST-1 assay (Roche) according to the protocol of the manufacturer. (n=3)

| SMILES | cytotoxicity / activity compared with the natural product, in words [3] | also measured |
| --- | --- | --- |
| CC(C)[C@H]1/C=C/C(=O)NCC[C@H](O)C[C@H](NC(=O)[C@@H](NC(=O)/C=C/C=C/CCCCCc2ccccc2)[C@@H](C)O)C(=O)N1 [S39, (2E,4E)-N-((2S,3R)-3-hydroxy-1-(((5S,8S,10S,E)-10-hydroxy-5-isopropyl-2,7-dioxo-1,6-diazacyclododec-3-en-8-yl)amino)-1-oxobutan-2-yl)-10-phenyldeca-2,4-dienamide] |  | EC50 ([1]; Homo sapiens, WST-1): 4.5 nM; cytotoxicity EC50 compared with natural product and 50, in words [1]: significantly more potent than the natural product; also recorded: its cytotoxicity did not surpass that of 50 |
| CC(C)CCCCC/C=C/C=C/C(=O)N[C@H](C(=O)N[C@H]1CCCCNC(=O)/C=C/[C@H](C)NC1=O)[C@@H](C)O [compound 38, Desoxycepafungin] |  | fold higher IC50 than 1 [2]: ca. 11 fold |
| CC(C)CCCCC/C=C/C=C/C(=O)N[C@H](C(=O)N[C@H]1C[C@H](O)CCNC(=O)/C=C/[C@H](C)NC1=O)[C@@H](C)O [compound 40, (2E,4E)-N-((2S,3R)-3-hydroxy-1-(((5S,8S,10R,E)-10-hydroxy-5-methyl-2,7-dioxo-1,6-diazacyclododec-3-en-8-yl)amino)-1-oxobutan-2-yl)-11-methyldodeca-2,4-dienamide] | nearly inactive at both concentrations |  |
| CC(C)CCCCC/C=C/C=C/C(=O)N[C@H](C(=O)N[C@@H]1C(=O)N[C@@H](C)/C=C/C(=O)NCCC[C@@H]1O)[C@@H](C)O [compound 41, (2E,4E)-N-((2S,3R)-3-hydroxy-1-(((5S,8S,9S,E)-9-hydroxy-5-methyl-2,7-dioxo-1,6-diazacyclododec-3-en-8-yl)amino)-1-oxobutan-2-yl)-11-methyldodeca-2,4-dienamide] | nearly inactive at both concentrations |  |
| CC(C)CCCCC/C=C/C=C/C(=O)N[C@H](C(=O)N[C@H]1CC(=O)CCNC(=O)/C=C/[C@H](C)NC1=O)[C@@H](C)O [compound 42, (2E,4E)-N-((2S,3R)-3-hydroxy-1-(((5S,8S,E)-5-methyl-2,7,10-trioxo-1,6-diazacyclododec-3-en-8-yl)amino)-1-oxobutan-2-yl)-11-methyldodeca-2,4-dienamide] | potency approaching that of the natural product |  |
| CC(C)CCCCC/C=C/C=C/C(=O)N[C@H](C(=O)N[C@H]1C[C@@H](O)CCNC(=O)/C=C/[C@H](C(C)C)NC1=O)[C@@H](C)O [compound 43, (2E,4E)-N-((2S,3R)-3-hydroxy-1-(((5S,8S,10S,E)-10-hydroxy-5-isopropyl-2,7-dioxo-1,6-diazacyclododec-3-en-8-yl)amino)-1-oxobutan-2-yl)-11-methyldodeca-2,4-dienamide] | slightly greater cytotoxicity than the natural product | potency compared with parent natural product 1 in screening (FIG. 6A, 6B) [3]: more potent than the parent natural product 1 |
| CC[C@H](NC(=O)/C=C/C=C/CCCCCC(C)C)C(=O)N[C@H]1C[C@@H](O)CCNC(=O)/C=C/[C@H](C)NC1=O [compound 44, (2E,4E)-N—((S)-1-(((5S,8S,10S,E)-10-hydroxy-5-methyl-2,7-dioxo-1,6-diazacyclododec-3-en-8-yl)amino)-1-oxobutan-2-yl)-11-methyldodeca-2,4-dienamide] | Thr residue next to the cepafungin macrocycle appears to be favored over the ethyl sidechain of desoxy-Thr analog 44 |  |
| CC(C)CCCCC/C=C/C=C/C(=O)N[C@H](C(=O)N[C@H]1C[C@@H](O)CCNC(=O)/C=C/[C@H](C)NC1=O)[C@H](O)c1ccccc1 [compound 45, (2E,4E)-N-((1R,2S)-1-hydroxy-3-(((5S,8S,10S,E)-10-hydroxy-5-methyl-2,7-dioxo-1,6-diazacyclododec-3-en-8-yl)amino)-3-oxo-1-phenylpropan-2-yl)-11-methyldodeca-2,4-dienamide] | substantially weaker |  |
| CC(C)CCCCC/C=C/C=C/C(=O)N[C@H](C(=O)N[C@H]1C[C@@H](O)CCNC(=O)/C=C/[C@H](C)NC1=O)[C@H](O)C(C)C [compound 46, (2E,4E)-N-((2S,3R)-3-hydroxy-1-(((5S,8S,10S,E)-10-hydroxy-5-methyl-2,7-dioxo-1,6-diazacyclododec-3-en-8-yl)amino)-4-methyl-1-oxopentan-2-yl)-11-methyldodeca-2,4-dienamide] | approached the potency of the natural product |  |
| C[C@H]1/C=C/C(=O)NCC[C@H](O)C[C@H](NC(=O)[C@@H](NC(=O)/C=C/C=C/CCCCCC(C)(C)C)[C@@H](C)O)C(=O)N1 [compound 47, (2E,4E)-N-((2S,3R)-3-hydroxy-1-(((5S,8S,10S,E)-10-hydroxy-5-methyl-2,7-dioxo-1,6-diazacyclododec-3-en-8-yl)amino)-1-oxobutan-2-yl)-11,11-dimethyldodeca-2,4-dienamide] | improved cytotoxicity relative to 1 | potency compared with parent natural product 1 in screening (FIG. 6A, 6B) [3]: more potent than the parent natural product 1 |
| C[C@H]1/C=C/C(=O)NCC[C@H](O)C[C@H](NC(=O)[C@@H](NC(=O)/C=C/C=C/CCCCCC2CCCC2)[C@@H](C)O)C(=O)N1 [compound 48, (2E,4E)-10-cyclopentyl-N-((2S,3R)-3-hydroxy-1-(((5S,8S,10S,E)-10-hydroxy-5-methyl-2,7-dioxo-1,6-diazacyclododec-3-en-8-yl)amino)-1-oxobutan-2-yl)deca-2,4-dienamide] | improved cytotoxicity relative to 1 | potency compared with parent natural product 1 in screening (FIG. 6A, 6B) [3]: more potent than the parent natural product 1 |
| C[C@H]1/C=C/C(=O)NCC[C@H](O)C[C@H](NC(=O)[C@@H](NC(=O)/C=C/C=C/CCCCCC2CCCCC2)[C@@H](C)O)C(=O)N1 [compound 49, (2E,4E)-10-cyclohexyl-N-((2S,3R)-3-hydroxy-1-(((5S,8S,10S,E)-10-hydroxy-5-methyl-2,7-dioxo-1,6-diazacyclododec-3-en-8-yl)amino)-1-oxobutan-2-yl)deca-2,4-dienamide] | roughly similar activity as the natural product |  |
| C[C@H]1/C=C/C(=O)NCC[C@H](O)C[C@H](NC(=O)[C@@H](NC(=O)/C=C/C=C/CCCCCC(F)(F)F)[C@@H](C)O)C(=O)N1 [compound 51, (2E,4E)-11,11,11-trifluoro-N-((2S,3R)-3-hydroxy-1-(((5S,8S,10S,E)-10-hydroxy-5-methyl-2,7-dioxo-1,6-diazacyclododec-3-en-8-yl)amino)-1-oxobutan-2-yl)undeca-2,4-dienamide] | essentially inactive at both concentrations tested |  |
